Test results from PubChem BioAssay (NCI).
Values joined by “and” are separate entries in the source; they are usually repeats but may differ in a detail not shown here. Equal values may be shown once.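 1) Cells in 96-well plates. 2) Compound, 48 h, 5 concentrations. 3) Linear interpolation between surrounding doses. 4) Unreached endpoint = highest concentration. Here, GI50 denotes the concentration required for 50% inhibition of growth. TGI: total growth inhibition.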

How the values were obtained:
Assay in all cases: NCI-60 cell line screen, 48 h
COLO 205 colon = tested on: COLO 205 colon
UO-31 renal = tested on: UO-31 renal
MDA-MB-231 breast = tested on: MDA-MB-231 breast
SNB-19 CNS = tested on: SNB-19 CNS
RPMI-8226 leukemia = tested on: RPMI-8226 leukemia
LOX IMVI melanoma = tested on: LOX IMVI melanoma
786-0 renal = tested on: 786-0 renal
T-47D breast = tested on: T-47D breast
NCI-H226 lung = tested on: NCI-H226 lung
K-562 leukemia = tested on: K-562 leukemia

SMILES	TGI (COLO 205 colon)	TGI (UO-31 renal)	TGI (MDA-MB-231 breast)	TGI (SNB-19 CNS)	TGI (RPMI-8226 leukemia)	TGI (LOX IMVI melanoma)	TGI (786-0 renal)	TGI (T-47D breast)	TGI (NCI-H226 lung)	TGI (K-562 leukemia)	GI50 (MDA-MB-231 breast)
NNc1nncn1N	> 100 µM	> 100 µM	> 100 µM	> 100 µM	> 100 µM	> 100 µM	> 100 µM	> 100 µM	> 100 µM	> 100 µM	
CN(Cc1cnc2nc(N)nc(N)c2n1)c1ccc(C(=O)NC(CCC(=O)NC(P(=O)(O)O)P(=O)(O)O)C(=O)O)cc1 (stereo unspecified)	> 100 µM	> 100 µM	> 100 µM	27.6 µM	> 100 µM	> 100 µM	> 100 µM	> 100 µM	> 100 µM	> 100 µM	
[N-]=[N+]=Nc1ccc(CNc2cc(=O)[nH]c(=O)[nH]2)cc1	> 100 µM	> 100 µM	> 100 µM	> 100 µM	> 100 µM	> 100 µM	> 100 µM	> 100 µM	> 100 µM	> 100 µM	
CC(=O)N1CCN(C23OC4(N5CCN(C(C)=O)CC5)C5C6CC(C7C6C4C72)C53)CC1 (stereo unspecified)	> 100 µM	> 100 µM	> 100 µM	> 100 µM	> 100 µM	> 100 µM	> 100 µM	> 100 µM	> 100 µM	> 100 µM	
CN(C)CCNc1ncnc2nc(-c3ccc4ccccc4c3)[nH]c12	> 100 µM	> 100 µM	> 100 µM	> 100 µM	> 100 µM	> 100 µM	> 100 µM	> 100 µM	> 100 µM	> 100 µM	
CC(=Nc1ccncc1)C(C)=Nc1ccncc1	31 µM	30.8 µM	62.6 µM	68.5 µM	45 µM	42.1 µM	> 100 µM	77.7 µM	> 100 µM	> 100 µM	
Cn1nc(S(N)(=O)=O)s/c1=N/C(N)=S	> 100 µM	> 100 µM	> 100 µM	> 100 µM	> 100 µM	> 100 µM	> 100 µM	> 100 µM	> 100 µM	> 100 µM	
COc1cc(C2SCC(=O)N2c2ccc(Oc3ccc(Cl)cc3)c(Cl)c2)cc(OC)c1OC (stereo unspecified)	36.6 µM	91.3 µM	40.3 µM	> 100 µM	> 100 µM	36.8 µM	33.9 µM	27.5 µM	31.9 µM	> 100 µM	
COc1ccc(OC)c2c1C1CCC(=O)N1CN2C(C)=O (stereo unspecified)	> 100 µM	> 100 µM	> 100 µM	> 100 µM	> 100 µM	> 100 µM	> 100 µM	> 100 µM	> 100 µM	> 100 µM	
Cc1c(NC2(C)C(=O)N(/N=C/c3ccccc3)N=C2c2ccccc2)n[nH]c1-c1ccccc1 (stereo unspecified)	> 100 µM	> 100 µM	> 100 µM	> 100 µM	> 100 µM	> 100 µM	> 100 µM	> 100 µM	> 100 µM	> 100 µM	
COc1ccc(C2C(C#N)=C(S)N(C3OC(CO)C(O)C(O)C3O)C(c3ccccc3)=C2C(C)=O)cc1 (stereo unspecified)	> 100 µM	> 100 µM	> 100 µM	> 100 µM	> 100 µM	> 100 µM	> 100 µM	69.9 µM	> 100 µM	> 100 µM	
C[n+]1c2ccccc2c(C(=O)Nc2ccc(S(=O)(=O)N=C(N)N)cc2)c2ccccc21	> 100 µM	> 100 µM	76.5 µM	> 100 µM	> 100 µM	> 100 µM	> 100 µM	> 100 µM	> 100 µM	> 100 µM	
C=C(C)C1CC=C(C)C2(C1)OCC(C)(C)C(C)O2 (stereo unspecified)	34.5 µM	40.8 µM	46.3 µM	33.3 µM	43.2 µM	31.8 µM	33 µM	55.4 µM	35.7 µM	45.8 µM	
O=c1[nH]c(Nc2cccc(Cl)c2)nc2nc[nH]c12	> 100 µM	> 100 µM	> 100 µM	> 100 µM	> 100 µM	> 100 µM	> 100 µM	> 100 µM	> 100 µM	> 100 µM	
CC(=O)c1cc2c(s1)C(=O)c1ccccc1C2=O	28.9 µM	9.1 µM	41.8 µM	5.57 µM	26.9 µM	15 µM	> 71.3 µM	20.6 µM	11.4 µM	> 100 µM	
COc1cc2c(/C=C3/C(=O)N(c4ccccc4)c4ccccc43)c(Cl)[nH]c2cc1C	7.05 µM	> 26.9 µM	27 µM	> 54.6 µM	7.01 µM	10.2 µM	> 44.6 µM	7.5 µM	> 100 µM	> 100 µM	
CC1(COS(=O)(=O)OCC2(C)COS(=O)(=O)OC2)COS(=O)(=O)OC1	> 100 µM	> 100 µM	> 100 µM	> 100 µM	> 50.1 µM	> 77.9 µM	> 100 µM	> 100 µM	> 96.8 µM	> 100 µM	
COC(=O)[C@@H]1C[C@@]2(C3C=CN(C(=O)C(F)(F)F)C=C3)c3ccccc3N(C(=O)C(F)(F)F)[C@H]2N1C(=O)OC	> 100 µM	> 100 µM	> 100 µM	> 100 µM	> 100 µM	> 100 µM	> 100 µM	> 100 µM	> 100 µM	> 100 µM	
Cc1c2c(OCCCCN3CCN(c4ncccn4)CC3)nn(C)c(=O)c2c(C)n1-c1ccccc1	34.8 µM	30.8 µM	30.7 µM	33.3 µM	74.4 µM	44.5 µM	34.7 µM	45.8 µM	40.8 µM	> 100 µM	
O=c1oc2ccc(Cl)cc2cc1-c1cn2cc(Cl)ccc2n1	> 100 µM	> 100 µM	> 100 µM	> 27.1 µM	> 100 µM	> 100 µM	> 100 µM	> 100 µM	> 100 µM	> 100 µM	
COc1ccc2nc3cc(Cl)ccc3c(NCCNCCCNC(=O)c3cc(-c4ccccc4)nc4ccccc34)c2c1	> 100 µM	> 100 µM	> 100 µM	> 100 µM	> 100 µM	> 100 µM	> 100 µM	> 100 µM	> 100 µM	> 100 µM	
CCOC(=O)C(CS)NC(=O)CCCCCCCC(=O)NC(CS)C(=O)OCC (stereo unspecified)	> 100 µM	> 100 µM	> 100 µM	> 100 µM	> 100 µM	> 100 µM	> 100 µM	> 100 µM	> 100 µM	> 100 µM	
O=c1[nH]c(N/N=C\C(O)C(O)C(O)CO)nc2ccccc12 (stereo unspecified)	> 100 µM	> 100 µM	> 100 µM	> 100 µM	> 100 µM	> 100 µM	> 100 µM	> 100 µM	> 100 µM	> 100 µM	> 100 µM and 47.7 µM
